The values that follow come from US20260317320A1, “C5AR1 ANTAGONISTS AND USES THEREOF” (Vanqua Bio, Inc., priority 2022, published 2026).

Assay [1] deals with T1, complement C5a receptor 1 (C5aR1) (Homo sapiens, UniProt P21730).
T1 construct: β-galactosidase fragment (PathHunter enzyme complementation); host or cells: CHO-K1 (PathHunter CHO-K1 C5aR1 β-arrestin cell line)
T1 sequence (P21730 1-350): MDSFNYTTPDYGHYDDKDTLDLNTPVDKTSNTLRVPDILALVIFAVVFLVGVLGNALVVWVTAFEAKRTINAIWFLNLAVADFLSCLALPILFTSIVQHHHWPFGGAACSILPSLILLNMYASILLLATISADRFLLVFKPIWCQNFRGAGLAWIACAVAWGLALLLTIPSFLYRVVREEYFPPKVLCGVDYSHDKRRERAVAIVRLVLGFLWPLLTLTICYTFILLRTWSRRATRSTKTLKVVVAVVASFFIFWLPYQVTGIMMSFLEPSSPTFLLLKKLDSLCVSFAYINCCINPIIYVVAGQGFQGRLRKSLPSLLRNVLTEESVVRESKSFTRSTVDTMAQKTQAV
As to the kind of experiment: β-arrestin recruitment via C5aR1 activation in live CHO-K1 cells (PathHunter), antagonist mode. The format is cell-based. Particulars: antagonist mode; recombinant hC5a (EC90) as competing natural agonist; live CHO-K1 cells; read-out: [Antagonist] B-arrestin2 recruitment: Average IC50; call rule not given here. In a few lines: (§1)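 β-arrestin recruitment to C5aR1 in CHO-K1 cells is detected by enzyme-fragment complementation. Antagonism is measured against recombinant hC5a at its EC90; agonism is measured with compound alone. Potencies are grouped into IC50 categories.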

Assay [2] concerns the target T1, complement C5a receptor 1 (C5aR1). In words: β-arrestin recruitment via C5aR1 activation in live CHO-K1 cells (PathHunter), agonist mode. The format is cell-based. In a few lines:
as §1
On the technique in general: Recruitment of arrestin is a read-out of receptor activation apart from second messengers.

Read-outs that look alike come from different tables or passages of the source.

By IC50 is commonly meant the concentration that inhibits the measured activity by half. Turning to `Cc1ccc2cc([C@H]3C[C@@H](c4c(C)cccc4F)C3)c(=O)n(Cc3ncccc3C(F)(F)F)c2n1` [243B, 3-((1s,3s)-3-(2-Fluoro-6-methylphenyl)cyclobutyl)-7-methyl-1-((3-(trifluoromethyl)pyridin-2-yl)methyl)-1,8-naphthyridin-2(1H)-one], the IC50 in assay [1] is below 500 nM. Moreover, in assay [2], the “[Agonist] B-arrestin2 recruitment: Average EC50 (nM)” value (from here on “[Agonist] B-arrestin2 recruitment”) is given as “Non-Active”.

As for `Cc1cccc(F)c1N1CCC(c2cc3nccnc3n(Cc3ncccc3C(F)(F)F)c2=O)CC1` [compound 21, 7-(1-(2-Fluoro-6-methylphenyl)piperidin-4-yl)-5-((3-(trifluoromethyl)pyridin-2-yl)methyl)pyrido[2,3-b]pyrazin-6(5H)-one], the half-maximal inhibitory concentration (IC50) in assay [1] was below 500 nM. The “[Agonist] B-arrestin2 recruitment” value in assay [2] is given as “Non-Active”.

For the compound `Cc1cccc(F)c1N1CCC(c2c(C)c3nccnc3n(Cc3ncccc3C(F)(F)F)c2=O)CC1` [compound 57, 7-(1-(2-Fluoro-6-methylphenyl)piperidin-4-yl)-8-methyl-5-((3-(trifluoromethyl)pyridin-2-yl)methyl)pyrido[2,3-b]pyrazin-6(5H)-one], the concentration for half-maximal inhibition (IC50) in assay [1] is below 500 nM. In addition, the “[Agonist] B-arrestin2 recruitment” value in assay [2] is on record as “Non-Active”.

Consider `Cc1cnc2c(cc([C@H]3CC[C@H](c4c(C)cccc4F)CC3)c(=O)n2Cc2ncccc2C(F)(F)F)n1` [compound 182, 7-((1r,4r)-4-(2-Fluoro-6-methylphenyl)cyclohexyl)-2-methyl-5-((3-(trifluoromethyl)pyridin-2-yl)methyl)pyrido[2,3-b]pyrazin-6(5H)-one], for which the half-maximal inhibitory concentration (IC50) in assay [1] is below 500 nM. Besides, the “[Agonist] B-arrestin2 recruitment” value in assay [2] (at 10 μM) is reported as “Non-Active at 10 μM”.

For the compound `COc1cnc2cc(C3CCN(c4c(C)cccc4F)CC3)c(=O)n(Cc3ncccc3C(F)(F)F)c2n1` [compound 54, 7-(1-(2-Fluoro-6-methylphenyl)piperidin-4-yl)-3-methoxy-5-((3-(trifluoromethyl)pyridin-2-yl)methyl)pyrido[2,3-b]pyrazin-6(5H)-one], in assay [1], the IC50 is above 100000 nM. In addition, the “[Agonist] B-arrestin2 recruitment” value in assay [2] was “Non-Active”.

Take `CCc1cnc2cc([C@H]3CC[C@H](c4c(C)cccc4F)CC3)c(=O)n(Cc3ncccc3C(F)(F)F)c2n1` [compound 201, 3-Ethyl-7-((1r,4r)-4-(2-fluoro-6-methylphenyl)cyclohexyl)-5-((3-(trifluoromethyl)pyridin-2-yl)methyl)pyrido[2,3-b]pyrazin-6(5H)-one]: the 50% inhibitory concentration (IC50) in assay [1] is below 500 nM. The “[Agonist] B-arrestin2 recruitment” value in assay [2] (at 10 μM) is listed as “Non-Active at 10 μM”.

For the compound `Cc1cnc2cc([C@H]3CC[C@H](c4c(F)cccc4C(F)(F)F)CC3)c(=O)n(Cc3ncccc3OC(F)(F)F)c2n1` [compound 216, 7-((1r,4r)-4-(2-Fluoro-6-(trifluoromethyl)phenyl)cyclohexyl)-3-methyl-5-((3-(trifluoromethoxy)pyridin-2-yl)methyl)pyrido[2,3-b]pyrazin-6(5H)-one], the half-maximal inhibitory concentration (IC50) in assay [1] lay within 500 to 5000 nM. The “[Agonist] B-arrestin2 recruitment” value in assay [2] (at 10 μM) was “Non-Active at 10 μM”.

On to `Cc1cnc2c(cc(C3CCN(c4c(C)cccc4F)CC3)c(=O)n2Cc2ccccc2C(F)(F)F)n1` [compound 55, 7-(1-(2-Fluoro-6-methylphenyl)piperidin-4-yl)-2-methyl-5-(2-(trifluoromethyl)-benzyl)-pyrido[2,3-b]pyrazin-6(5H)-one], for which, in assay [1], the concentration for half-maximal inhibition (IC50) lay within 500 to 5000 nM. In addition, in assay [2], the “[Agonist] B-arrestin2 recruitment” value is recorded as “Non-Active”.

With `Cc1cccc(F)c1N1CCC(c2cc3nccnc3n(Cc3nccnc3C)c2=O)CC1` [compound 20, 7-(1-(2-Fluoro-6-methylphenyl)piperidin-4-yl)-5-((3-methylpyrazin-2-yl)methyl)pyrido[2,3-b]pyrazin-6(5H)-one], the concentration for half-maximal inhibition (IC50) in assay [1] was 500 to 5000 nM. Besides, the “[Agonist] B-arrestin2 recruitment” value in assay [2] is “Non-Active”.

Take `Cc1cc(F)ncc1N1CCC(c2cc3nccnc3n(Cc3ccccc3C(F)(F)F)c2=O)CC1` [compound 32, 7-(1-(6-Fluoro-4-methylpyridin-3-yl)piperidin-4-yl)-5-(2-(trifluoromethyl)benzyl)pyrido-[2,3-b]pyrazin-6(5H)-one]: the IC50 in assay [1] was below 500 nM. Further, the “[Agonist] B-arrestin2 recruitment” value in assay [2] is “Non-Active”.

`COc1nccc(C)c1[C@H]1CC[C@H](c2cc3ccc(C)nc3n(Cc3ncccc3C3CC3)c2=O)CC1` [compound 252, 1-((3-Cyclopropylpyridin-2-yl)methyl)-3-((1r,4r)-4-(2-methoxy-4-methylpyridin-3-yl)cyclohexyl)-7-methyl-1,8-naphthyridin-2(1H)-one]: in assay [1], the 50% inhibitory concentration (IC50) is below 500 nM. Also, in assay [2] (at 10 μM), the “[Agonist] B-arrestin2 recruitment” value was “Non-Active at 10 μM”.

Turning to `Cc1cnc2cc([C@H]3CC[C@H](c4c(F)cccc4F)CC3)c(=O)n(Cc3ncccc3C(F)(F)F)c2n1` [compound 222, 7-((1r,4r)-4-(2,6-Difluorophenyl)cyclohexyl)-3-methyl-5-((3-(trifluoromethyl)pyridin-2-yl)methyl)pyrido[2,3-b]pyrazin-6(5H)-one], the half-maximal inhibitory concentration (IC50) in assay [1] is below 500 nM. For the same compound, the “[Agonist] B-arrestin2 recruitment” value in assay [2] (at 10 μM) was “Non-Active at 10 μM”.

With `COc1cnc2c(cc(C3CCN(c4c(C)cccc4F)CC3)c(=O)n2Cc2ncccc2C(F)(F)F)n1` [compound 65, 7-(1-(2-Fluoro-6-methylphenyl)piperidin-4-yl)-2-methoxy-5-((3-(trifluoromethyl)pyridin-2-yl)methyl)pyrido[2,3-b]pyrazin-6(5H)-one], the 50% inhibitory concentration (IC50) in assay [1] was 500 to 5000 nM. In addition, the “[Agonist] B-arrestin2 recruitment” value in assay [2] was “Non-Active”.

`Cc1ccc2cc([C@H]3CC[C@H](c4c(C)cccc4F)CC3)c(=O)n(Cc3ncccc3OC(F)(F)F)c2n1` [compound 196, 3-((1r,4r)-4-(2-Fluoro-6-methylphenyl)cyclohexyl)-7-methyl-1-((3-(trifluoromethoxy)pyridin-2-yl)methyl)-1,8-naphthyridin-2(1H)-one]: the half-inhibitory concentration (IC50) in assay [1] was below 500 nM. Besides, the “[Agonist] B-arrestin2 recruitment” value in assay [2] was “Non-Active”.

Take `COc1nccc(C)c1[C@H]1CC[C@H](c2cc3ccc(C)nc3n(Cc3ncccc3CC(F)(F)F)c2=O)CC1` [compound 260, 7-Methyl-3-[(1r,4r)-4-(2-methoxy-4-methyl-3-pyridyl)cyclohexyl]-1-{[3-(2,2,2-trifluoroethyl)-2-pyridyl]methyl}-1,8-diaza-2(1H)-naphthalenone]: the concentration for half-maximal inhibition (IC50) in assay [1] is below 500 nM. Moreover, the “[Agonist] B-arrestin2 recruitment” value in assay [2] was “Non-Active”.

Consider `Cc1cnc2cc([C@H]3CC[C@H](c4ncccc4C(F)F)CC3)c(=O)n(Cc3ncccc3C(F)(F)F)c2n1` [compound 179, 7-((1r,4r)-4-(3-(Difluoromethyl)pyridin-2-yl)cyclohexyl)-3-methyl-5-((3-(trifluoromethyl)pyridin-2-yl)methyl)pyrido[2,3-b]pyrazin-6(5H)-one], for which, in assay [1], the IC50 was below 500 nM. Moreover, in assay [2] (at 10 μM), the “[Agonist] B-arrestin2 recruitment” value is “Non-Active at 10 μM”.

In the case of `Cc1cnc2cc([C@H]3CC[C@@H](c4c(C)cccc4F)CC3)c(=O)n(Cc3nccnc3OC(F)F)c2n1` [168A, 5-((3-(Difluoromethoxy)pyrazin-2-yl)methyl)-7-((1s,4s)-4-(2-fluoro-6-methylphenyl)cyclohexyl)-3-methylpyrido[2,3-b]pyrazin-6(5H)-one], in assay [1], the IC50 was in the range of 500 to 5000 nM. Moreover, the “[Agonist] B-arrestin2 recruitment” value in assay [2] (at 10 μM) is on record as “Non-Active at 10 μM”.

Take `Cc1cnc2cc([C@H]3CC[C@H](c4nn(C)c5ccccc54)CC3)c(=O)n(Cc3ncccc3C(F)(F)F)c2n1` [compound 191, 3-Methyl-7-((1r,4r)-4-(1-methyl-1H-indazol-3-yl)cyclohexyl)-5-((3-(trifluoromethyl)pyridin-2-yl)methyl)pyrido[2,3-b]pyrazin-6(5H)-one]: the IC50 in assay [1] lay in the range of 5000 to 100000 nM. In assay [2] (at 10 μM), the “[Agonist] B-arrestin2 recruitment” value is listed as “Non-Active at 10 μM”.

Take `CCOc1nccnc1Cn1c(=O)c([C@H]2CC[C@H](c3c(C)cccc3F)CC2)cc2ncc(C)nc21` [compound 169, 5-((3-Ethoxypyrazin-2-yl)methyl)-7-((1r,4r)-4-(2-fluoro-6-methylphenyl)cyclohexyl)-3-methylpyrido[2,3-b]pyrazin-6(5H)-one]: the IC50 in assay [1] was below 500 nM. Moreover, the “[Agonist] B-arrestin2 recruitment” value in assay [2] (at 10 μM) was “Non-Active at 10 μM”.

Take `Cc1cnc2cc(C3CCN(c4c(C)cccc4F)CC3)c(=O)n([C@H]3CCCc4nccnc43)c2n1` [61a, (S)-7-(1-(2-Fluoro-6-methylphenyl)piperidin-4-yl)-3-methyl-5-(5,6,7,8-tetrahydroquinoxalin-5-yl) pyrido[2,3-b]pyrazin-6(5H)-one]: the IC50 in assay [1] fell in the range of 500 to 5000 nM. Besides, the “[Agonist] B-arrestin2 recruitment” value in assay [2] is “Non-Active”.

Consider `Cc1cnc2cc([C@H]3CC[C@H](c4c(C)cccc4F)CC3)c(=O)n(Cc3nccnc3OC(F)F)c2n1` [168B, 5-((3-(Difluoromethoxy)pyrazin-2-yl)methyl)-7-((1r,4r)-4-(2-fluoro-6-methylphenyl)cyclohexyl)-3-methylpyrido[2,3-b]pyrazin-6(5H)-one], for which the IC50 in assay [1] is below 500 nM. Besides, the “[Agonist] B-arrestin2 recruitment” value in assay [2] (at 10 μM) is listed as “Non-Active at 10 μM”.

For the compound `Cc1cnc2cc([C@H]3CC[C@H](c4c(C)cccc4F)CC3)c(=O)n(Cc3nccnc3C(F)F)c2n1` [148B, 5-((3-(Difluoromethyl)pyrazin-2-yl)methyl)-7-((1r,4r)-4-(2-fluoro-6-methylphenyl)cyclohexyl)-3-methylpyrido[2,3-b]pyrazin-6(5H)-one], the IC50 in assay [1] was below 500 nM. The “[Agonist] B-arrestin2 recruitment” value in assay [2] is “Non-Active”.
